Values quoted from earlier work in article PMC8308777, “Small Molecule–Peptide Conjugates as Dimerization Inhibitors of Leishmania infantum Trypanothione Disulfide Reductase” (Pharmaceuticals, 2021).

Target: T1, Leishmania infantum trypanothione disulfide reductase (LiTryR) (Leishmania infantum, UniProt A4HSF7)
T1 construct: HIS; made in house; host or cells: E. coli BL21 (DE3) Rossetta 2
Conditions: earlier work of the authors; cited from earlier work
From the text: Considering that the biologically functional form of TryR is a homodimer, in 2013, we devised an alternative inhibition strategy aimed at disrupting the protein–protein interactions at the homodimer interface of Leishmania infantum TryR (LiTryR). Thus, by combining molecular modeling and site-directed mutagenesis studies, we identified and validated, for the first time, Glu436 (located at an interfacial α-helix spanning from Pro435 to Met447) as a “hotspot” for LiTryR homodimer stabilization. As a “proof of concept”, we designed and tested a small library of linear peptides [[22] ...

T1 sequence (A4HSF7 entry or part of it): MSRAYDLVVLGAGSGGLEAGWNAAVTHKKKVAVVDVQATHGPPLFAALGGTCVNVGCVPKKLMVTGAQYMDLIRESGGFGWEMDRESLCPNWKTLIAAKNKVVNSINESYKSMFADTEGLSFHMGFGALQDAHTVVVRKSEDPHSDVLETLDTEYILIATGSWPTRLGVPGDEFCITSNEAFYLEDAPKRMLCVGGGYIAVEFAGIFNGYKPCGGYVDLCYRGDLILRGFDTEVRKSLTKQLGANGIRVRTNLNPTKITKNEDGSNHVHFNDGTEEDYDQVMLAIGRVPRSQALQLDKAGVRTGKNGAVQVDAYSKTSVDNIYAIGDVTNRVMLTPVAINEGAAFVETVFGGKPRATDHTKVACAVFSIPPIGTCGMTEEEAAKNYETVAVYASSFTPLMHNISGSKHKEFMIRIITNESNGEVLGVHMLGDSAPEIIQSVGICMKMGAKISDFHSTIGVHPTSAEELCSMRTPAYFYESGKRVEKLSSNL

Ac-PKIIQSVGISMKM-NH2 [TRL35, Nα-acetylated 13-mer peptide, earlier LiTryR dimerization disruptor]
inhibition of the oxidoreductase activity of LiTryR: submicromolar range
